The values that follow are results of earlier work, collected in patent US20210267908A1, “PHARMACEUTICAL COMPOSITIONS OF RIVAROXABAN” (MANKIND PHARMA LTD., priority 2020, published 2021).

Regarding `O=C(NC[C@H]1CN(c2ccc(N3CCOCC3=O)cc2)C(=O)O1)c1ccc(Cl)s1` [Rivaroxaban, 5-Chloro-N-({(5S)-2-oxo-3-[4-(3-oxo-4-morpholinyl)phenyl]-1,3-oxazolidin-5-yl}methyl)-2-thiophenecarboxamide], where the note is “aqueous media at 25° C.”, the “amount pH-independently soluble in aqueous media” value is 5-7 mg/L. Besides, the “solubility in organic solvents” value (organic solvents (e.g. acetone, polyethylene glycol 400)) was “only slightly soluble”. Besides, under “water and aqueous media with pH 1-9”, the “solubility in water and aqueous media” value is “practically insoluble”.
